In patent EP1944022A1, “PHARMACEUTICAL COMPOSITIONS COMBINING […] ANTICONVULSANT AGENTS FOR THE TREATMENT OF CHRONIC AND ACUTE PAIN” (ESPINOZA ABDALA, Leopoldo de Jesús, priority 2005, dated 2007):

Tested on: nociceptive pain
Assay: uric acid-induced knee joint inflammation and pain in rats, recovery of Functionality Ratio (AUC over 4 hours)
Assay type: in vivo, female Wistar rats
Settings: rat
Experimental: An experimental preclinical study was performed that compares the analgesic effect of tramadol and gabapentin administered individually and in combination, using female Wistar rats weighting from 160 to 180 g, which were intraarticularly injected 0.05 ml uric acid suspended in mineral oil into knee joint of left hindleg under anesthesia in order to cause inflammation and pain. An electrode was connected at the plantar region of hindlegs. The rats were placed in a roller of 30 cm of diameter rotating at 4 rpm during two-minute periods. The time of contact between each electrode of the rats' hindlegs and the roller was registered. The data are expressed as Functionality Ratio (FR). […] At the same time the medicaments, alone or in combination, were administered, and the Functionality Ratio every 30 minutes for 4 hours was determined. […]
Doses used for the combination were 3.16, 5.62, 10.0 or 17.78, 31.62, 56.23, 100.0 mg/kg of tramadol and those used for gabapentin were 31.6, 56.2, 100.0, 177.8, 316.2 mg/kg. Thus, the possible synergistic interaction (a total of 24 combinations) was analyzed.
The synergism between gabapentin and tramadol was calculated with the synergistic interaction surface analysis and an isobolographic method (Tallarida et al., 1989). The area under the curve (AUC) was calculated for each of the combinations and for each of the components.

SMILES	total analgesic effect, area under the curve (AUC) (in vivo)	total analgesic effect, area under the curve (AUC) (gabapentin alone 316.2 mg/kg, 4-hours observation period)
COc1cccc(C2(O)CCCCC2CN(C)C)c1 (mixture of isomers) [tramadol, (±) cis-2-[(dimethylamino)methyl]-1-(3-metoxyphenyl) cyclohexanol]	207.7 ± 24.7 area units	–
NCC1(CC(=O)O)CCCCC1 [Gabapentin]	–	121.5 ± 30.3 area units
